Measured values as given in patent publication US9512139B2, “Conformationally constrained, fully synthetic macrocyclic compounds” (POLYPHOR AG, priority 2009, dated 2016).

Molecular target: T1, Prostaglandin F (FP) Receptor (Homo sapiens, UniProt P43088)
T1 construct: host or cells: Ca2+ optimized hematopoietic cell lines (rat)
Experiment: Ca2+ assay (FLIPR) for the GPCR prostaglandin F (FP) receptor, agonist and antagonist mode
Format: cell-based
Method: Biological and Pharmacological Methods 1. Ca^2+ Assays for the GPCRs Motilin Receptor, Prostaglandin F (FP) Receptor, 5-hydroxytryptamine 2B (5-HT2B) Receptor, and Purinoreceptor P2Y1
Assays were performed using on a FLIPR^TETRA fluorometric imaging plate reader (Molecular Devices) with ScreenWorks Version 2 (Molecular Devices) as device operating and data analysis software.
Dose dependent agonist and antagonist activities were determined. Percentage activation and percentage inhibition values were determined.
Percentage activation was determined upon initial addition of the sample compounds followed by 10 minutes incubation at 25° C. Following compound incubation, reference agonists were added at EC80 to determine percentage inhibition.
Reference agonists were purchased from reputable commercial vendors and prepared according to each ligand's specifications. All handling of ligands were done to ensure proper control throughout the experiments.
Example compounds were weighed on a Microbalance (Mettler MX5) and dissolved in 100% DMSO to a final concentration of 2.5 mM and subsequently diluted into the assay buffer.
The Assay buffer was a supplemented HBSS (Hank's Balanced Salt Solution). HBSS was supplemented with 20 mM HEPES (4-(2-hydroxyethyl)-piperazin-1-ethansulfonic acid) and 2.5 mM Probenecid (Sigma P8761).
GPCR assays were performed using Ca^2+ optimized hematopoietic cell lines (rat) with cultures never exceeding 90% confluency. Cells were harvested and seeded (from cultures at less than 90% confluency) at 50000 cells/well for a 96-well plate (12500 cells/well for 384). After seeding, the assay plates were incubated for forty-five (45) minutes at room temperature. After room temperature incubation, the assay plates were incubated at 37° C. 5% CO2 for 24 hours prior to assaying.
All GPCR assays were performed using Fluo-8 Ca^2+ dye. Ca^2+ dye was prepared at 1× dye concentration in GPCR assay buffer. After 24 hours of incubation, cells were washed with GPCR assay buffer, and then Ca^2+-dye (100 μL/well) was added.
The plates were incubated for 90 minutes at 30° C. 5% CO2 prior to FLIPR assay.
Compound plates were prepared to add 50 μL/well during the agonist assay mode. During the FLIPR assay, 50 μL/well from the compound plate was diluted 3-fold into the existing 100 μL/well from the dye loading step. Therefore all compounds were prepared as 3× the final concentration desired in the assay.
After completion of the first single addition assay run, assay plate was removed from the FLIPR Tetra and placed at 25° C. for seven (7) minutes before antagonist assay.
Using the EC80 values determined during the agonist assay, all pre-incubated sample compound and reference antagonist (if applicable) wells were stimulated at the EC80 of the reference agonist. As reference ligands for the first three assays their obvious natural ligands motilin, prostaglandin F2α, and serotonin (5-HT, 5-Hydroxytryptamine) were used; and for the P2Y1 assay 2MeSATP (2-methyl-thio-adeno-sine 5′-triphosphate, i.e. (2R,3S,4R)-5-(6-amino-2-methylsulfanyl-purin-9-yl)-3,4-dihydroxy-tetrahydrofuran-2-yl]methyl (hydroxy-phosphonooxy-phosphoryl)hydrogen phosphate) was applied.
After the addition of the reference agonist fluorescence was monitored for 180 sec using FLIPR Tetra.
Data Analysis and Results:
From the FLIPR data, with negative control correction enabled, the maximum statistic for each well was exported and percentage activation relative to Emax control was calculated.

T1 sequence (P43088 whole entry): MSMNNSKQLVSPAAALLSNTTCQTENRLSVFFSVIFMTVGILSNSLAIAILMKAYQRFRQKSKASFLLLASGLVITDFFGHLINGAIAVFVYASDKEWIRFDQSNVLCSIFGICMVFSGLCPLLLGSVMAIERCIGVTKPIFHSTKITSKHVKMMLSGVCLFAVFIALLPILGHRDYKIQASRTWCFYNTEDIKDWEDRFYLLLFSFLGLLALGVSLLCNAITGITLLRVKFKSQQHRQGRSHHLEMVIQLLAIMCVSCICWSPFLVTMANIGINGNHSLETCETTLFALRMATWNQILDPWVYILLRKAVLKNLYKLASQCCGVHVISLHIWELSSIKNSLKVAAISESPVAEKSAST

| SMILES | IC50 [µM] | inhibition at 10 µM [%] |
| --- | --- | --- |
| CN1CCC[C@H](NC(=O)CCCCOc2ccccc2)C(=O)N2C[C@@H](NC(=O)Cc3ccc4ccccc4c3)C[C@H]2COc2cccc(c2)C1=O [Ex. 517, N-[(4S,6S,10S)-14-methyl-6-{[2-(2-naphthyl)acetyl]amino}-9,15-dioxo-2-oxa-8,14-diazatricyclo[14.3.1.0^4,8]icosa-1(20),16,18-trien-10-yl]-5-phenoxypentanamide] | 0.65 | 98 |
| CCCCCC/C=C/CC(=O)N[C@H]1CCCN(C)C(=O)c2cccc(c2)OC[C@@H]2C[C@H](NC(=O)Cc3ccc4ccccc4c3)CN2C1=O [Ex. 518, (E)-N-[(4S,6S,10S)-14-methyl-6-{[2-(2-naphthyl)acetyl]amino}-9,15-dioxo-2-oxa-8,14-diazatricyclo[14.3.1.0^4,8]icosa-1(20),16,18-trien-10-yl]-3-decenamide] | 0.49 | 80 |
| CCCCCCCCCC(=O)N[C@H]1CCCN(C)C(=O)c2cccc(c2)OC[C@@H]2C[C@H](NC(=O)Cc3cccc4ccccc34)CN2C1=O [Ex. 519, N-[(4S,6S,10S)-14-methyl-6-{[2-(1-naphthyl)acetyl]amino}-9,15-dioxo-2-oxa-8,14-diazatricyclo[14.3.1.0^4,8]icosa-1(20),16,18-trien-10-yl]decanamide] | 3 | – |
| CN1CCC[C@H](NC(=O)CCCCCOCc2ccccc2)C(=O)N2C[C@@H](NC(=O)Cc3ccc4ccccc4c3)C[C@H]2COc2cccc(c2)C1=O [Ex. 521, 6-(benzyloxy)-N-[(4S,6S,10S)-14-methyl-6-{[2-(2-naphthyl)acetyl]amino}-9,15-dioxo-2-oxa-8,14-diazatricyclo[14.3.1.0^4,8]icosa-1(20),16,18-trien-10-yl]hexanamide] | 1 | 81 |
| CN1CCC[C@H](NC(=O)Cc2ccc(-c3ccccc3)cc2)C(=O)N2C[C@@H](NC(=O)Cc3ccc4ccccc4c3)C[C@H]2COc2cccc(c2)C1=O [Ex. 522, 2-[1,1′-biphenyl]-4-yl-N-[(4S,6S,10S)-14-methyl-6-{[2-(2-naphthyl)acetyl]amino}-9,15-dioxo-2-oxa-8,14-diazatricyclo[14.3.1.0^4,8]icosa-1(20),16,18-trien-10-yl]acetamide] | 0.35 | 95 |
| CN1CCC[C@H](NC(=O)CC(c2ccccc2)c2ccccc2)C(=O)N2C[C@@H](NC(=O)Cc3ccc4ccccc4c3)C[C@H]2COc2cccc(c2)C1=O [Ex. 523, N-[(4S,6S,10S)-14-methyl-6-{[2-(2-naphthyl)acetyl]amino}-9,15-dioxo-2-oxa-8,14-diazatricyclo[14.3.1.0^4,8]icosa-1(20),16,18-trien-10-yl]-3,3-diphenylpropanamide] | 0.86 | 92 |
| CN1CCC[C@H](NC(=O)CCCCCc2ccccc2)C(=O)N2C[C@@H](NC(=O)CCCCCOCc3ccccc3)C[C@H]2COc2cccc(c2)C1=O [Ex. 524, 6-(benzyloxy)-N-[(4S,6S,10S)-14-methyl-9,15-dioxo-10-[(6-phenylhexanoyl)amino]-2-oxa-8,14-diazatricyclo[14.3.1.0^4,8]icosa-1(20),16,18-trien-6-yl]hexanamide] | 1.7 | 85 |
| CN1CCC[C@H](NC(=O)Cc2ccc(-c3ccccc3)cc2)C(=O)N2C[C@@H](NC(=O)Nc3cccc(N(C)C)c3)C[C@H]2COc2cccc(c2)C1=O [Ex. 526, 2-[1,1′-biphenyl]-4-yl-N-[(4S,6S,10S)-6-({[3-(dimethylamino)anilino]carbonyl}amino)-14-methyl-9,15-dioxo-2-oxa-8,14-diazatricyclo[14.3.1.0^4,8]icosa-1(20),16,18-trien-10-yl]acetamide] | 0.18 | 99 |
| CN1CCC[C@H](NC(=O)Cc2ccc3ccccc3c2)C(=O)N2C[C@@H](NC(=O)Nc3cccc(F)c3)C[C@H]2COc2cccc(c2)C1=O [Ex. 537, N-[(4S,6S,10S)-6-{[(3-fluoroanilino)carbonyl]amino}-14-methyl-9,15-dioxo-2-oxa-8,14-diazatricyclo[14.3.1.0^4,8]icosa-1(20),16,18-trien-10-yl]-2-(2-naphthyl)acetamide] | – | 75 |
| CN1CCC[C@H](NC(=O)Cc2ccc3ccccc3c2)C(=O)N2C[C@@H](NC(=O)Nc3ccc(N(C)C)cc3)C[C@H]2COc2cccc(c2)C1=O [Ex. 538, N-[(4S,6S,10S)-6-({[4-(dimethylamino)anilino]carbonyl}amino)-14-methyl-9,15-dioxo-2-oxa-8,14-diazatricyclo[14.3.1.0^4,8]icosa-1(20),16,18-trien-10-yl]-2-(2-naphthyl)acetamide] | – | 80 |
| CN1CCC[C@H](NC(=O)Cc2ccc3ccccc3c2)C(=O)N2C[C@@H](NC(=O)Oc3ccccc3)C[C@H]2COc2cccc(c2)C1=O [Ex. 539, phenyl N-[(4S,6S,10S)-14-methyl-10-{[2-(2-naphthyl)acetyl]amino}-9,15-dioxo-2-oxa-8,14-diazatricyclo[14.3.1.0^4,8]icosa-1(20),16,18-trien-6-yl]carbamate] | – | 59 |
| CN1CCC[C@H](NC(=O)Cc2ccc3ccccc3c2)C(=O)N2C[C@@H](NC(=O)Cc3ccc4cccnc4c3)C[C@H]2COc2cccc(c2)C1=O [Ex. 540, N-[(4S,6S,10S)-14-methyl-9,15-dioxo-6-{[2-(7-quinolinyl)acetyl]amino}-2-oxa-8,14-diazatricyclo[14.3.1.0^4,8]icosa-1(20),16,18-trien-10-yl]-2-(2-naphthyl)acetamide] | – | 43 |
| CN1CCC[C@H](NC(=O)Cc2ccc3ccccc3c2)C(=O)N2C[C@@H](NC(=O)Cc3cccc(Oc4ccccc4)c3)C[C@H]2COc2cccc(c2)C1=O [Ex. 541, N-[(4S,6S,10S)-14-methyl-9,15-dioxo-6-{[2-(3-phenoxyphenyl)acetyl]amino}-2-oxa-8,14-diazatricyclo[14.3.1.0^4,8]icosa-1(20),16,18-trien-10-yl]-2-(2-naphthyl)acetamide] | – | 65 |
| CCCCCCCCCC(=O)N[C@H]1C[C@H]2COc3cccc(c3)C(=O)N(C)CCC[C@H](NC(=O)Cc3ccc4ccccc4c3)C(=O)N2C1 [Ex. 542, N-[(4S,6S,10S)-14-methyl-10-{[2-(2-naphthyl)acetyl]amino}-9,15-dioxo-2-oxa-8,14-diazatricyclo[14.3.1.0^4,8]icosa-1(20),16,18-trien-6-yl]decanamide] | – | 74 |
| CCCCCCCCCC(=O)N[C@H]1C[C@H]2COc3cccc(c3)C(=O)N(C)CCC[C@H](NC(=O)Cc3cccc4ccccc34)C(=O)N2C1 [Ex. 543, N-[(4S,6S,10S)-14-methyl-10-{[2-(1-naphthyl)acetyl]amino}-9,15-dioxo-2-oxa-8,14-diazatricyclo[14.3.1.0^4,8]icosa-1(20),16,18-trien-6-yl]decanamide] | – | 82 |
| CCCCCC(=O)N[C@H]1C[C@H]2COc3cccc(c3)C(=O)N(C)CCC[C@H](NC(=O)Cc3cccc4ccccc34)C(=O)N2C1 [Ex. 544, N-[(4S,6S,10S)-14-methyl-10-{[2-(1-naphthyl)acetyl]amino}-9,15-dioxo-2-oxa-8,14-diazatricyclo[14.3.1.0^4,8]icosa-1(20),16,18-trien-6-yl]hexanamide] | – | 81 |
